# pIC50: −log10 of the molar value.
# Tests used:
# [1] = system: Ba/F3; test: Cell proliferation inhibition, Cell Titer-Glo, Ba/F3; format: cell-based; details: Mus musculus, BaF3; cell proliferation assay, Ba/F3 cells
# Description: (§1) IGF1R and other tyrosine kinase inhibitors can inhibit the proliferation of certain cancer cell lines indicating their possible therapeutic utility for treating the corresponding cancer types. Cancer cell lines of interest and control normal lines, including CHO, HEK293, BA/F3, COLO205, PC3, DU145, MCF7, Panc1, ACHN, Hep G2, H460, K562, TT, U87-MG, CAOV-3, SK-MEL5, Karpas 299 and human multiple myeloma cell lines H929, MM1s, MM1r, UTMC2, CPM2, KMS11, My5, KMS12PE, My7, JJN3, KMS18, U266, SKMM2, RPMI-8226 are plated in white, clear-bottomed 384-well cell culture plates at 2500-5000 cells per well and supplied with dilutions of tested compounds After a desired period of time (typically 3 days), the number of viable cells is quantitated by using Cell Titer-Glo Luminescent Cell Viability Assay (Promega), a cell proliferation assay system based on detection of total amount of ATP present as a measure of cell metabolic activity. The plated cells are mixed with the Cell Titer-Glo developing reagent and counted in a luminescence multiwell plate reader according to the standard manufacturer's protocol to generate IC50 curves for cell proliferation inhibition. Results are typically reported as percent of growth (% viability =(OD72h(compound)−ODday0))/(OD72h(no compound)−ODday0). Alternatively, viable cells are quantitated by using the conventional colorimetric MTT assay. The MTT assay is based on the cleavage of the yellow tetrazolium salt MTT to purple formazan crystal by metabolic active cells. The formazan is then solubilized, and the concentration determined by optical density at 570 nm. The cells plated and incubated with a compound as described above are supplemented with the solution of MTT and incubated for 2-3 hours. The growth medium is removed and dimethyl sulfoxide is added into each well to dissolve the formazan. The absorbance is measured on an ELISA plate reader with a test wavelength of 570 nm and a background subtraction wavelength of 630 nm to obtain sample signal (OD570-OD630). […] The results are reported in terms of IC50 value for a particular compound and a cell line in the standard 3-day proliferation assay using Cell Titer-Glo. […] The results are reported in terms of IC50 value for a particular compound and a cell line in the standard 3-day proliferation assay using MTT assay.
# [2] = molecular target: T1, Jak2 (Homo sapiens, UniProt O60674); test: Tyrosine kinase assay (Kinase-Glo or AlphaScreen), Jak2; details: biochemical tyrosine kinase assay
# T1 construct: 6×His- or GST-tagged kinase domain fragments of the corresponding RTKs expressed in baculovirus system; host or cells: baculovirus system
# T1 sequence (O60674 849-1124 limits assumed, species assumed): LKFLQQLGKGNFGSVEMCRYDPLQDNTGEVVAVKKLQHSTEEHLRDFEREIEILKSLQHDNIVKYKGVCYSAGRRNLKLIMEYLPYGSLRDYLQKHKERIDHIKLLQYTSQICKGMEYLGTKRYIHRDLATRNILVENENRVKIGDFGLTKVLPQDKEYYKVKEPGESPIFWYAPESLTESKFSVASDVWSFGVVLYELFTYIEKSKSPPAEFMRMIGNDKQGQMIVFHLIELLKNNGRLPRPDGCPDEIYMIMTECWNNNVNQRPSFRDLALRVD
# Experimental: (§2) To determine inhibition of several tyrosine kinases, such as IGF1R, InsR, Alk, TrkA and Jak2, kinase assays are conducted using either Kinase-Glo (Promega) or AlphaScreen (PerkinElmer) kinase assay platforms. The Kinase-Glo Luminescent Kinase Assay is a homogeneous method for measuring kinase activity by determining the amount of ATP remaining after a kinase reaction. The luminescent signal is proportional to the amount of ATP and inversely proportional to the amount of kinase activity. Tyrosine kinase PT66 AlphaScreen Assay is a high-sensitivity homogeneous, anti-phosphotyrosine antibody-mediated luminescent proximity method measuring, incorporation of phosphate in synthetic poly(Glu-Tyr) substrate. The kinase preparations used consist of purified recombinant, 6×His- or GST-tagged kinase domain fragments of the corresponding RTKs expressed in baculovirus system.
# (§3) The IGF1R tyrosine kinase is assayed in Kinase-Glo ATP depletion assay using the synthetic polymer poly(Glu-Tyr, 4:1) (Sigma Chemicals) as a phosphoacceptor substrate. Each reaction mixture consists of a total volume of 10 μl and contains 40 ng of the enzyme, 5 μg of poly(Glu-Tyr), 10 μM of ATP and variable concentrations of test compounds. The mixtures also contain 50 mM Tris-HCl, pH 7.5; 5 mM MgCl2; 5 mM MnCl2; 2 mM DTT and 0.01% Tween 20. The reaction mixtures are incubated at 37° C. for 60 minutes and residual concentration of ATP in the mixture is determined by adding luciferase-containing Kinase-Glo (Promega) development reagent and counting luminescence levels using Fusion Universal Microplate Analyzer (PerkinElmer). Tested compounds are dissolved in dimethyl sulfoxide to a stock concentration of 10 mM and are typically evaluated in the assay at eight concentrations in 1 nM to 20 μM range, each in quadruplicate. […] IC50 values are derived by non-linear regression analysis using Prism 3.0 software (Graphpad Software). Other tyrosine kinases are assayed according to the same protocol after titrating amount of the enzyme to provide optimal signal-to-noise ratio and no more than 30% of total ATP consumption in the reaction conditions used.
# (§4) The IGF1R tyrosine kinase is assayed in Phosphotyrosine (PT66 or PT 100) AlphaScreen chemiluminescent assay (PerkinElmer) according to the manufacturerer's recommendations. Each kinase reaction mixture consists of a total volume of 15 μl and contains 0.1-1 ng of the enzyme, 7 ng of biotinylated poly(Glu-Tyr) (Cis-Bio), 10 μM of ATP and variable concentrations of test compounds. The mixtures also contain 50 mM Tris-HCl, pH 7.5; 5 mM MgCl2; 5 mM MnCl2; 2 mM DTT and 0.01% Tween 20. The reaction mixtures are incubated at room temperature for 30 minutes. Ten (10) μl of the mixture of […] and donor beads (as supplied by the manufacturer) is then added to the reaction and the incubation is continued for an additional 60 minutes.
# [3] = system: Karpas-299; test: Cell proliferation inhibition, Cell Titer-Glo, Karpas-299; format: cell-based; details: Homo sapiens; cell proliferation assay, Karpas-299 cells
# Description: as §1
# [4] = molecular target: T2, IGF1R tyrosine kinase (Homo sapiens, UniProt P08069); test: IGF1R tyrosine kinase assay (Kinase-Glo ATP depletion or PT66/PT100 AlphaScreen); details: biochemical tyrosine kinase assay
# T2 construct: 6×His- or GST-tagged kinase domain fragments of the corresponding RTKs expressed in baculovirus system; host or cells: baculovirus system
# T2 sequence (P08069 999-1274 limits assumed): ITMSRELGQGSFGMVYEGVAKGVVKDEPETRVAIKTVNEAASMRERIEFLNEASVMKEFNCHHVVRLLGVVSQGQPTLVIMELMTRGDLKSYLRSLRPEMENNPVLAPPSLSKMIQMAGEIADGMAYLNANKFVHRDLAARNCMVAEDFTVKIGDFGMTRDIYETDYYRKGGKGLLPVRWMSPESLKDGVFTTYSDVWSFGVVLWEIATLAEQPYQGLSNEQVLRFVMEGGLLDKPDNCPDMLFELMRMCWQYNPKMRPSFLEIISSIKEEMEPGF
# Experimental: as §2, §3, §4
# [5] = system: K562; test: Cell proliferation inhibition, Cell Titer-Glo, K562; format: cell-based; details: Homo sapiens; cell proliferation assay, K562 cells
# Description: as §1
# [6] = molecular target: T3, Alk (Homo sapiens, UniProt Q9UM73); test: Tyrosine kinase assay (Kinase-Glo or AlphaScreen), Alk; details: biochemical tyrosine kinase assay
# T3 construct: 6×His- or GST-tagged kinase domain fragments of the corresponding RTKs expressed in baculovirus system; host or cells: baculovirus system
# T3 sequence (Q9UM73 1116-1392 limits assumed, species assumed): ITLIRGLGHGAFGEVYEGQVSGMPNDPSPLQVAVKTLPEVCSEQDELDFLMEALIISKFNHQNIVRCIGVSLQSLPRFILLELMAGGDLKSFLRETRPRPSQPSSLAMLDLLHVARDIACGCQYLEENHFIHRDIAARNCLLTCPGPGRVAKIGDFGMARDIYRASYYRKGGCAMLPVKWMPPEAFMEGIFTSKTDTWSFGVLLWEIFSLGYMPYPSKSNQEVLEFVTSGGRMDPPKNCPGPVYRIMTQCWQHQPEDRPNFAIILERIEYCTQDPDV
# Experimental: as §2, §3, §4
# [7] = molecular target: T4, InsR (Homo sapiens, UniProt P06213); test: Tyrosine kinase assay (Kinase-Glo or AlphaScreen), InsR; details: biochemical tyrosine kinase assay
# T4 construct: 6×His- or GST-tagged kinase domain fragments of the corresponding RTKs expressed in baculovirus system; host or cells: baculovirus system
# T4 sequence (P06213 1023-1298 limits assumed, species assumed): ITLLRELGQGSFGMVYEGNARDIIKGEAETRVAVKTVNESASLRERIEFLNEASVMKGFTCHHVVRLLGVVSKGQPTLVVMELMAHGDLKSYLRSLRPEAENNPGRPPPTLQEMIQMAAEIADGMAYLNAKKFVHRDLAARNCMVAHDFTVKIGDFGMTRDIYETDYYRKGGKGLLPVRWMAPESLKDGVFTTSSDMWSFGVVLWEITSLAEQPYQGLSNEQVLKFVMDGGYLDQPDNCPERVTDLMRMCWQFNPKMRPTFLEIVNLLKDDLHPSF
# Experimental: as §2, §3, §4
SMILES,pIC50 [1],pIC50 [2],pIC50 [3],pIC50 [4],pIC50 [5],pIC50 [6],pIC50 [7]
CCN(CC)C(=O)c1ccc(OC[C@H](O)CNc2ccnc(O)c2-c2nc3cc4c(cc3[nH]2)C(=O)N(C2CCN(C)CC2)C4=O)c(OC)c1 [compound 51],< 4.82,< 4.82,< 4.82,< 4.82,< 4.82,< 4.82,< 4.82
CN1CCC(N2C(=O)c3cc4nc(-c5c(NC[C@@H](O)COc6cccc(Br)c6)ccnc5O)[nH]c4cc3C2=O)CC1 [compound 76],5.30 to 6.30,5.30 to 6.30,5.30 to 6.30,5.30 to 6.30,5.30 to 6.30,5.30 to 6.30,5.30 to 6.30
O=C1CCCN1CCCN1C(=O)c2cc3nc(-c4c(NC[C@@H](O)c5cccc(Cl)c5)cc[nH]c4=O)[nH]c3cc2C1=O [compound 47],4.82 to 5.30,5.30 to 6.30,4.82 to 5.30,5.30 to 6.30,–,4.82 to 5.30,5.30 to 6.30
O=C1c2cc3nc(-c4c(NC[C@@H](O)c5cccc(Cl)c5)cc[nH]c4=O)[nH]c3cc2C(=O)N1CCCn1ccnc1 [compound 45],4.82 to 5.30,5.30 to 6.30,4.82 to 5.30,5.30 to 6.30,–,5.30 to 6.30,5.30 to 6.30
O=C1c2cc3nc(-c4c(NC[C@@H](O)c5cccc(Cl)c5)cc[nH]c4=O)[nH]c3cc2C(=O)N1C(CO)CO [compound 25],–,> 6.30,–,> 6.30,–,4.82 to 5.30,> 6.30
Cc1c(Cl)cccc1OC[C@H](O)CNc1cc[nH]c(=O)c1-c1nc2c(C)c3c(cc2[nH]1)C(=O)N(C1CCN(C)CC1)C3=O [compound 121],5.30 to 6.30,5.30 to 6.30,4.82 to 5.30,5.30 to 6.30,–,5.30 to 6.30,5.30 to 6.30
COCCN1CCC(CN2C(=O)c3cc4nc(-c5c(NC[C@@H](O)c6cccc(Cl)c6)cc[nH]c5=O)[nH]c4cc3C2=O)CC1 [compound 24],–,5.30 to 6.30,–,> 6.30,–,5.30 to 6.30,> 6.30
O=C1c2cc3nc(-c4c(NC[C@@H](O)c5cccc(Cl)c5)cc[nH]c4=O)[nH]c3cc2C(=O)N1CCc1cccnc1 [compound 27],–,< 4.82,–,< 4.82,–,< 4.82,< 4.82

# Continued, values first:
pIC50 [1],pIC50 [2],pIC50 [3],pIC50 [4],pIC50 [5],pIC50 [6],pIC50 [7],SMILES
< 4.82,5.30 to 6.30,< 4.82,5.30 to 6.30,< 4.82,4.82 to 5.30,4.82 to 5.30,COc1cc(C#N)ccc1OC[C@H](O)CNc1ccnc(O)c1-c1nc2cc3c(cc2[nH]1)C(=O)N(C1CCN(C)CC1)C3=O [compound 50]
< 4.82,5.30 to 6.30,4.82 to 5.30,5.30 to 6.30,4.82 to 5.30,< 4.82,5.30 to 6.30,O=C1c2cc3nc(-c4c(NC[C@@H](O)c5cccc(Cl)c5)cc[nH]c4=O)[nH]c3cc2C(=O)N1CCCO [compound 44]
5.30 to 6.30,5.30 to 6.30,5.30 to 6.30,> 6.30,5.30 to 6.30,5.30 to 6.30,> 6.30,Cc1ccc(OC[C@H](O)CNc2ccnc(O)c2-c2nc3cc4c(cc3[nH]2)C(=O)N(C2CCN(C)CC2)C4=O)c2c1CCC2 [compound 85]
5.30 to 6.30,5.30 to 6.30,5.30 to 6.30,5.30 to 6.30,5.30 to 6.30,5.30 to 6.30,5.30 to 6.30,CN1CCC(N2C(=O)c3cc4nc(-c5c(NC[C@@H](O)COc6cccc(Cl)c6)ccnc5O)[nH]c4cc3C2=O)CC1 [compound 75]
–,5.30 to 6.30,–,5.30 to 6.30,–,5.30 to 6.30,5.30 to 6.30,O=C1c2cc3nc(-c4c(NC[C@@H](O)c5cccc(Cl)c5)cc[nH]c4=O)[nH]c3cc2C(=O)N1CCc1c[nH]cn1 [compound 9]
< 4.82,< 4.82,5.30 to 6.30,< 4.82,–,< 4.82,< 4.82,COCCCN1C(=O)c2cc3nc(-c4c(NC[C@@H](O)COc5ccc(C)cc5C)cc[nH]c4=O)[nH]c3cc2C1=O [compound 109]
< 4.82,5.30 to 6.30,4.82 to 5.30,> 6.30,–,5.30 to 6.30,> 6.30,Cc1c(Cl)cccc1OC[C@H](O)CNc1cc[nH]c(=O)c1-c1nc2cc3c(cc2[nH]1)C(=O)N(CCCN1CCCC1)C3=O [compound 115]
5.30 to 6.30,5.30 to 6.30,5.30 to 6.30,> 6.30,–,5.30 to 6.30,> 6.30,O=C1c2cc3nc(-c4c(NC[C@@H](O)COc5c(F)ccc(Cl)c5F)cc[nH]c4=O)[nH]c3cc2C(=O)N1CC1CCN(CCO)CC1 [compound 120]
–,5.30 to 6.30,–,5.30 to 6.30,–,< 4.82,4.82 to 5.30,CN1CCC(N2C(=O)c3cc4nc(-c5c(NCC(O)c6ccncc6)cc[nH]c5=O)[nH]c4cc3C2=O)CC1 (stereo not drawn) [compound 7]
< 4.82,5.30 to 6.30,< 4.82,> 6.30,–,4.82 to 5.30,5.30 to 6.30,Cc1c2c(cc3[nH]c(-c4c(NC[C@@H](O)COc5c(F)ccc(Cl)c5F)cc[nH]c4=O)nc13)C(=O)N(C1CCN(C)CC1)C2=O [compound 122]
5.30 to 6.30,5.30 to 6.30,5.30 to 6.30,> 6.30,–,4.82 to 5.30,> 6.30,Cc1ccc(OC[C@H](O)CNc2cc[nH]c(=O)c2-c2nc3cc4c(cc3[nH]2)C(=O)N(CCCN2CCCC2)C4=O)c(C)c1 [compound 48]
–,5.30 to 6.30,–,4.82 to 5.30,–,4.82 to 5.30,5.30 to 6.30,COc1ccc2c(ccn2C[C@H](O)CNc2cc[nH]c(=O)c2-c2nc3cc4c(cc3[nH]2)CN(C2CCN(C)CC2)C4=O)c1 [compound 170]
4.82 to 5.30,< 4.82,4.82 to 5.30,> 6.30,–,< 4.82,5.30 to 6.30,O=C1c2cc3nc(-c4c(NC[C@@H](O)c5cccc(Cl)c5)cc[nH]c4=O)[nH]c3cc2C(=O)N1CC(O)CO (stereo partly drawn) [compound 46]
